Entries after “also recorded” stand apart in the source; their conditions may differ. Each block holds one compound with its values, some of them ahead of it. Where a SMILES comes first, the peptide text is derived from it. Where no end group is shown, it is not given here. The star is where a group is joined. Cbz = O=C(OCc1ccccc1)*; CH2F = FC*
Assays:
[1] = system: cell membrane; test: Cell membrane permeability and retention of peptides in cells (description); assay type: cell-based; details: for cell membrane permeability: need of a cell delivery system
[2] = target: T1, interaction of Ku70 and Bax (Homo sapiens, UniProt Q07812); test: Inhibition of the interaction of Ku70 and Bax in cell lysates; assay type: binding; details: negative controls; lysates from human cultured cells
T1 construct: lysates prepared from human cultured cells (HeLa cells and human kidney epithelial 293 cells); endogenous in cells; host or cells: HeLa cells; human kidney epithelial 293 cells
T1 sequence (Q07812 whole entry): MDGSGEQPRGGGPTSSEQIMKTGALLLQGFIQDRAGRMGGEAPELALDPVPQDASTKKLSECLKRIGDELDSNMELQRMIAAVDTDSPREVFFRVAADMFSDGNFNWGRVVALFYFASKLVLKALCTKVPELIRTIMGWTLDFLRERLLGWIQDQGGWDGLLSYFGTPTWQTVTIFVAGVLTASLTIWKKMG
Description: The Bax-binding domain in Ku70 comprises 6 amino acids (VPMLKE, SEQ ID NO: 1). This peptide (Ku70 Peptide) inhibits the interaction of Ku70 and Bax at the concentration of 20-80 μM in lysates prepared from human cultured cells (HeLa cells and human kidney epithelial 293 cells).

[3] = Preliminary toxicity study in mice; assay type: in vivo; details: 166.5 mg/kg i.p. and 16.5 mg/kg i.v.t.
Description: Importantly, we also obtained a preliminary result showing that BIP pre-treatment attenuated Etoposide-induced platelet decrease in mouse model. To develop the technology protecting megakaryocytes from chemotherapy, further extensive animal studies are needed. […] We examined doses of 166.5 mg/kg by i.p. and 16.5 mg/kg by i.v.t. […] The dose of 166.5 mg/kg is expected to achieve 300 μM of BIP in whole mouse body, if a mouse body is assumed to be filled with water. Probably, much less amount of BIP is sufficient to achieve effective doses (50-400 μM) (Sawada, M., P. Hayes, and S. Matsuyama, Cytoprotective membrane-permeable peptides designed from the Bax-binding domain of Ku70. Nat Cell Biol, 2003. 5(4): p. 352-7; Yoshida, T., et al., Bax-inhibiting peptide derived from mouse and rat Ku70. Biochem Biophys Res Commun, 2004. 321(4): p. 961-6; Yu, L. Y., et al., GDNF-deprived sympathetic neurons die via a novel nonmitochondrial pathway. J Cell Biol, 2003. 163(5): p. 987-97; Qin, Q., K. Patil, and S. C. Sharma, The role of Bax-inhibiting peptide in retinal ganglion cell apoptosis after optic nerve transection. Neurosci Lett, 2004. 372(1-2): p. 17-21) in blood or a specific tissue.

[4] = system: platelet number in mouse peripheral blood; test: Platelet number in mouse peripheral blood after Etoposide; assay type: in vivo, C57BL/6J mice; details: Etoposide 150 mg/kg i.p., for 48 hrs
Description: Percentage of platelets in C57BL/6J mice compared to before treatment (100%). […] The statistical significance was determine by an unpaired student t test, *P<0.05, **P<0.01, ***, P<0.001.
Mouse blood (50-100 micro 1) was collected by heparin-coated capillary tube from tail, and the samples were incubated at room temperature for 1 hr before blood cell analysis using HEMA VET blood cell counter (Drew Scientific Inc. Oxford, Conn.). Each blood sample was measured twice, and the mean value of two measurements was used as one sample data (n=1).

[5] = system: primary cultured mouse megakaryocytes; test: Platelet formation in vitro (Integrin αIIB positive platelet like particles, flow cytometry); assay type: cell-based; details: 48 h; VPTLK 200 μM; Z-VAD-fmk 200 and 400 μM; FIG. 5B
Description: After the pre-incubation with the peptides, 1 mM EDTA and 50 ng/ml prostaglandin E1 (Sigma) dissolved in ethanol were added to the cell culture before the centrifugation (700 g) at room temperature (RT) for 10 min. The platelets were washed with 300 μl of tyrodes buffer (pH 7.4) containing 2.5 mg/ml BSA and 1 mg/ml glucose. Then 2 μl of anti CD16/anti CD32 (BD Phaminogen™) was added to the platelets. The platelets were incubated at RT for 10 min. The platelets were divided into 3 sets, and 2 μl of rat IgG1 κ phycoerythrin (PE) labeled isotype control (Pharmingen) was added to one sample, and 2 μl of PE labeled antibody of intregin αIIB PE (Santa Cruz) was added to the other two samples. The platelets were incubated at RT for 30 min. Finally, 5 μl of Flow-Count™ Fluorospheres (Beackman-Coulter™) was added to the sample as platelet size marker. The platelets were detected with a FACScan flow cytometer system (Becton Dickinson; BD LSRII) using cellquest software. Each point in the figures showing percent apoptosis represents the mean±SEM of three experiments.

cell membrane permeability [1]: cell membrane permeable
Compound: VPMLK [VPMLK]

Compound: Ku70 Peptide NC: the immediate next six amino acid sequence of Ku70, negative control (LGKFTV; UniProt P12956 573-578, looked up, fragment)
effect on the interaction of Ku70 and Bax [2]: did not affect the interaction of Ku70 and Bax

Compound: VPTLK [VPTLK]
survival after the injection [3]: more than 3 months
toxicity in mice ([3]; preliminary study, listed as BIP): did not show any toxicity; also recorded: did not show any sign of illness

platelet count in the peripheral blood after Etoposide alone [4]: slight decrease of platelet count
Compound: COc1cc([C@@H]2c3cc4c(cc3[C@@H](O[C@@H]3O[C@@H]5CO[C@@H](C)O[C@H]5[C@H](O)[C@H]3O)[C@H]3COC(=O)[C@H]23)OCO4)cc(OC)c1O [Etoposide]

retention in the cell [1]: not retained in the cell
cell membrane permeability [1]: cell membrane permeable
Compound: CSCC[C@H](NC(=O)[C@@H]1CCCN1)C(=O)N[C@@H](CC(C)C)C(=O)N[C@@H](CCCCN)C(=O)O [PMLK] (H-PMLK-OH; N-terminus and C-terminus assumed)

Compound: COC(=O)CC(NC(=O)C(C)NC(=O)C(NC(=O)OCc1ccccc1)C(C)C)C(=O)CF (stereo not drawn) [Z-VAD-fmk, Benzyloxycarbonyl-Val-Ala-Asp (OMe) fluoromethylketone] (Cbz-Val-Ala-Asp(OMe)-CH2F; configuration not given here)
platelet like particles formation [5]: slightly decreased platelet like particles formation

cell membrane permeability [1]: cell membrane permeable
Compound: VPALR [VPALR]

Compound: VPMLKE [VPMLKE]
cell membrane permeability [1]: a cell delivery system, such as liposomes as in the case of VPMLKE

cell membrane permeability [1]: cell membrane permeable
Compound: PMLKE [PMLKE]

Reference: patent US8183342B2, “Method of treating chemotherapy-induced thrombocytopenia” (Case Western Reserve University, priority 2007, dated 2012)
